The values below come from PubChem BioAssay AID330 (DTP/NCI, 2004).

Where “and” joins values, the source holds several entries; their conditions need not be identical. Equal values may be shown once. Inconclusive results and toxic doses are left out.

The subject of this test is P388 leukemia ip, CD2F1 mice, survival T/C. Nature of the test: NCI In Vivo Anticancer Drug Screen. Data for tumor model P388 Leukemia (intraperitoneal) in CD2F1 (CDF1) mice. The settings on record: endpoint: median survival time, higher = longer survival. In short, it runs like this:
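Mice carrying the transplanted tumor received test compound or vehicle. Survival was recorded in each group, and the value is the treated-group measurement divided by that of the vehicle-treated control group.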

The mark [1] stands for this setting: dose: 50.0 mg/kg/injection, schedule: Q01DX009 (ip), vehicle: saline with Tween-80.
The mark [2] stands for this setting: dose: 100.0 mg/kg/injection, schedule: Q01DX009 (ip), vehicle: saline with Tween-80.
[3] abbreviates: dose: 200.0 mg/kg/injection, schedule: Q01DX009 (ip), vehicle: saline with Tween-80.
Setting [4] is: dose: 100.0 mg/kg/injection, schedule: Q04DX003 (ip), vehicle: saline.
Setting [5] is: dose: 200.0 mg/kg/injection, schedule: Q04DX003 (ip), vehicle: saline.
Where [6] appears, read: dose: 30.0 mg/kg/injection, schedule: Q01DX005 (ip), vehicle: Klucel (hydroxypropylcellulose) (HPC).
Where [7] appears, read: dose: 60.0 mg/kg/injection, schedule: Q01DX005 (ip), vehicle: Klucel (hydroxypropylcellulose) (HPC).
Setting [8] is: dose: 120.0 mg/kg/injection, schedule: Q01DX005 (ip), vehicle: Klucel (hydroxypropylcellulose) (HPC).
[9] abbreviates: dose: 240.0 mg/kg/injection, schedule: Q01DX005 (ip), vehicle: Klucel (hydroxypropylcellulose) (HPC).
Setting [10] is: dose: 50.0 mg/kg/injection, schedule: Q01DX005 (ip), vehicle: saline with Tween-80.
[11] abbreviates: dose: 100.0 mg/kg/injection, schedule: Q01DX005 (ip), vehicle: saline with Tween-80.
Setting [12] is: dose: 200.0 mg/kg/injection, schedule: Q01DX005 (ip), vehicle: saline with Tween-80.
Setting [13] is: dose: 50.0 mg/kg/injection, schedule: Q01DX009 (ip), vehicle: saline.
Setting [14] is: dose: 100.0 mg/kg/injection, schedule: Q01DX001 (ip), vehicle: Klucel (hydroxypropylcellulose) (HPC).
[15] abbreviates: dose: 200.0 mg/kg/injection, schedule: Q01DX001 (ip), vehicle: Klucel (hydroxypropylcellulose) (HPC).
[16] abbreviates: dose: 400.0 mg/kg/injection, schedule: Q01DX001 (ip), vehicle: Klucel (hydroxypropylcellulose) (HPC).

`CCN(CC)CCN1C(=O)c2cccc3c(N)c(OC)cc(c23)C1=O`: the T/C was 103 % of control (dose: 25.0 mg/kg/injection, schedule: Q01DX005 (ip), vehicle: saline); 100 % of control and 97 % of control (dose: 50.0 mg/kg/injection, schedule: Q01DX005 (ip), vehicle: saline); 100 % of control and 104 % of control (dose: 100.0 mg/kg/injection, schedule: Q01DX005 (ip), vehicle: saline).
Consider `CCSCCC1(CCC(C)C)C(=O)NC(=Nc2ccccc2)NC1=O` (stereo not drawn), for which the T/C under setting [1] is 99 % of control; the T/C under setting [2] was 95 % of control; the T/C under setting [3] was 99 % of control; the T/C (dose: 400.0 mg/kg/injection, schedule: Q01DX009 (ip), vehicle: saline with Tween-80) is 95 % of control.
As to `Oc1ccc(SCc2ccc(NCc3ccccc3)cc2)cc1`, the T/C was 113 % of control and 117 % of control under setting [1]; 119 % of control under setting [2].
For the molecule `CCN(CC)CCNC(=O)c1ccc2c(c1)C(=O)c1ccccc1C2=O`, the T/C by setting is: under setting [4], 108 % of control; under setting [5], 119 % of control.
Take `CC(C)CCCC(C)C1CCC2C3CCC4CCC=CC4(C)C3CCC12C` (stereo not drawn): the T/C runs as follows: under setting [6], 93 % of control; under setting [7], 90 % of control; under setting [8], 90 % of control; under setting [9], 91 % of control.
On to `CC(/C=C/c1ccc2c(c1)OCO2)=N\NC(N)=O`, for which the T/C was 100 % of control under setting [10], 97 % of control under setting [11] and 95 % of control under setting [12].
As to `CCOCC(=O)O`, the T/C by setting is: under setting [13], 95 % of control; (dose: 100.0 mg/kg/injection, schedule: Q01DX009 (ip), vehicle: saline) 92 % of control; (dose: 200.0 mg/kg/injection, schedule: Q01DX009 (ip), vehicle: saline) 91 % of control.
On to `CCCCC(NC(C)(C)C)c1ccccc1` (stereo not drawn), for which the T/C is 97 % of control under setting [4]; 101 % of control under setting [5]; 102 % of control (dose: 400.0 mg/kg/injection, schedule: Q04DX003 (ip), vehicle: saline).
Turning to `CCOC(=O)c1[nH]c(=O)c2cccnc2c1O`, the T/C runs as follows: under setting [6], 97 % of control; under setting [7], 94 % of control and 98 % of control; under setting [8], 106 % of control and 96 % of control; under setting [9], 113 % of control.
Take `COC(=O)c1c(C(N)=O)c(C)n(NC(N)=O)c1C`: the T/C reads like this: under setting [10], 117 % of control; under setting [11], 107 % of control; under setting [12], 108 % of control.
`O=C(O)C1(Cc2ccccc2)C(=O)C=Cc2ccccc21` (stereo not drawn): the T/C is, setting by setting: under setting [14], 101 % of control; under setting [15], 101 % of control; under setting [16], 97 % of control.
In the case of `CC1=C(C)C2(C)c3ccccc3NC(=S)C12C` (stereo not drawn), the T/C was 101 % of control under setting [14], 105 % of control under setting [15] and 102 % of control under setting [16].
As to `O=C1Nc2c(cccc2-c2ccccc2)C(=O)C1(O)c1ccccc1` (stereo not drawn), the T/C runs as follows: under setting [7], 97 % of control; under setting [8], 94 % of control; under setting [9], 90 % of control.
Consider `CS(=O)(=O)CS(=O)(=O)OCCBr`, for which the T/C is, setting by setting: (dose: 12.5 mg/kg/injection, schedule: Q01DX005 (ip), vehicle: saline with Tween-80) 98 % of control; (dose: 25.0 mg/kg/injection, schedule: Q01DX005 (ip), vehicle: saline with Tween-80) 123 % of control; under setting [10], 159 % of control; under setting [11], 226 % of control.
Turning to `O=C(O)c1cc(-c2ccc(Cl)cc2)nc2c(-c3ccccc3)cccc12`, the T/C runs as follows: under setting [1], 91 % of control; under setting [2], 103 % of control; under setting [3], 104 % of control.
For the molecule `CC1(C)N=C(N)N=C(N)N1c1cccc(CCC(=O)Nc2ccc(S(=O)(=O)F)cc2)c1`, the T/C runs as follows: (dose: 18.8 mg/kg/injection, schedule: Q01DX009 (ip), vehicle: saline with Tween-80) 116 % of control and 118 % of control; (dose: 37.5 mg/kg/injection, schedule: Q01DX009 (ip), vehicle: saline with Tween-80) 115 % of control and 118 % of control; (dose: 150.0 mg/kg/injection, schedule: Q01DX009 (ip), vehicle: saline with Tween-80) 107 % of control.
Consider `CCN(CC)CCOC(=O)c1ccc(NC(=O)COc2ccc3ccccc3c2)cc1`, for which the T/C runs as follows: (dose: 25.0 mg/kg/injection, schedule: Q01DX009 (ip), vehicle: other) 88 % of control and 97 % of control; (dose: 50.0 mg/kg/injection, schedule: Q01DX009 (ip), vehicle: other) 88 % of control and 102 % of control; (dose: 100.0 mg/kg/injection, schedule: Q01DX009 (ip), vehicle: other) 86 % of control and 105 % of control; (dose: 200.0 mg/kg/injection, schedule: Q01DX009 (ip), vehicle: other) 102 % of control and 97 % of control; (dose: 400.0 mg/kg/injection, schedule: Q01DX009 (ip), vehicle: other) 100 % of control and 109 % of control.
For the molecule `C1CC(CCC2CCNCC2)CCN1`, the T/C reads like this: (dose: 25.0 mg/kg/injection, schedule: Q01DX009 (ip), vehicle: saline) 96 % of control; under setting [13], 97 % of control.
Consider `C1CC[N-]CC1.C1CC[N-]CC1.C1CC[N-]CC1.C1CC[N-]CC1.O=S(=O)(O)O.[Cu+2]`, for which the T/C is, setting by setting: (dose: 10.0 mg/kg/injection, schedule: Q04DX002 (ip), vehicle: saline) 100 % of control; (dose: 20.0 mg/kg/injection, schedule: Q04DX002 (ip), vehicle: saline) 110 % of control.
For `COc1ccc(CN2C(=O)C(Cl)=C(Cl)C2=O)c(OC)c1`, the T/C runs as follows: (dose: 60.0 mg/kg/injection, schedule: Q01DX005 (ip), vehicle: saline with Tween-80) 100 % of control; (dose: 120.0 mg/kg/injection, schedule: Q01DX005 (ip), vehicle: saline with Tween-80) 94 % of control.
For the molecule `Cc1ccc(N=Nc2c(O)n(-c3ccc(Br)cc3)c(=S)n(-c3ccccc3)c2=O)cc1`, the T/C was 95 % of control (dose: 100.0 mg/kg/injection, schedule: Q01DX001 (ip), vehicle: saline with Tween-80); 100 % of control (dose: 200.0 mg/kg/injection, schedule: Q01DX001 (ip), vehicle: saline with Tween-80); 90 % of control (dose: 400.0 mg/kg/injection, schedule: Q01DX001 (ip), vehicle: saline with Tween-80).
With `CC(C)C(=NC(C)(C)C)Nc1ccccc1Cl`, the T/C is 100 % of control under setting [1], 92 % of control under setting [2] and 95 % of control under setting [3].
Turning to `COc1ccc(Cl)cc1C(=O)NCCc1ccc(CCC(=O)O)cc1`, the T/C runs as follows: (dose: 50.0 mg/kg/injection, schedule: Q01DX009 (ip), vehicle: Klucel (hydroxypropylcellulose) (HPC)) 99 % of control; (dose: 100.0 mg/kg/injection, schedule: Q01DX009 (ip), vehicle: Klucel (hydroxypropylcellulose) (HPC)) 98 % of control; (dose: 200.0 mg/kg/injection, schedule: Q01DX009 (ip), vehicle: Klucel (hydroxypropylcellulose) (HPC)) 102 % of control.
On to `Cc1cc(S(=O)(=O)c2ccccc2C(=O)O)nc2c1ccc1ccccc12`, for which the T/C by setting is: (dose: 50.0 mg/kg/injection, schedule: Q01DX005 (ip), vehicle: Klucel (hydroxypropylcellulose) (HPC)) 105 % of control; (dose: 100.0 mg/kg/injection, schedule: Q01DX005 (ip), vehicle: Klucel (hydroxypropylcellulose) (HPC)) 103 % of control; (dose: 200.0 mg/kg/injection, schedule: Q01DX005 (ip), vehicle: Klucel (hydroxypropylcellulose) (HPC)) 103 % of control.
For `CCN(CCOC(=O)Nc1ccc(Cl)cc1)C(=O)Nc1ccc(Cl)cc1`, the T/C was 90 % of control (dose: 60.0 mg/kg/injection, schedule: Q01DX005 (ip), vehicle: Klucel + Tween-80); 87 % of control (dose: 120.0 mg/kg/injection, schedule: Q01DX005 (ip), vehicle: Klucel + Tween-80); 87 % of control (dose: 240.0 mg/kg/injection, schedule: Q01DX005 (ip), vehicle: Klucel + Tween-80).
Regarding `CN=C(N)NN=C(c1ccc(F)cc1)c1ccc(F)cc1`, the T/C runs as follows: (dose: 12.5 mg/kg/injection, schedule: Q04DX002 (ip), vehicle: saline with Tween-80) 100 % of control and 106 % of control; (dose: 50.0 mg/kg/injection, schedule: Q04DX002 (ip), vehicle: saline with Tween-80) 87 % of control.
